According to patent US9932314B2, “Pyrazole compounds and their use as T-type calcium channel blockers” (IDORSIA PHARMACEUTICALS LTD, priority 2015, dated 2018):

Molecular target: T1, voltage-dependent T-type calcium channel subunit alpha-1G (Cav3.2) (Homo sapiens, UniProt O95180)
T1 construct: expressed in transfected cells; host or cells: HEK293
Test: FLIPR calcium flux assay, HEK293 cells recombinantly expressing Cav3.2
Format: cell-based
Details: Cav3.2-channel, Fluo-4-AM, 3 min incubation, stimulation with 10 mM CaCl2
Protocol: In Vitro Methods—Measurement of Calcium Channel Flux by Means of FLIPR Assays.
HEK293 cells recombinantly expressing either voltage-dependent T-type calcium channel subunit […] (Cav3.2) or voltage-dependent L-type calcium channel subunit alpha-1C (Cav1.2) are assayed for calcium flux using the calcium indicator dye Fluo-4-AM (Molecular Devices) and FLIPR technology (Fluorometric Imaging Plate Reader, Molecular Devices) (Xie X, Van Deusen A L, Vitko I, Babu D A, Davies L A, Huynh N, Cheng H, Yang N, Barrett P Q, Perez-Reyes E. Validation of high throughput screening assays against three subtypes of Ca(v)3 T-type channels using molecular and pharmacologic approaches. Assay and Drug Development Technologies 2007, 5(2), 191-203). The HEK293 cells recombinantly expressing Cav3.2 are maintained in DMEM growth medium (Life Technologies) supplemented with 10% Fetal Bovine Serum (FBS), 100 U/ml penicilin (Life Technologies), 100 μg/ml streptomycin (Life Technologies) and 1 mg/ml G418 (Life Technologies). HEK293 cells recombinantly expressing Cav1.2 are maintained in DMEM growth medium (Life technologies) supplemented with 10% FBS, 0.1 mg/ml G418 (Life Technologies), 0.1 mg/ml hygromycin (Life Technologies) and 40 ug/ml zeocin (Life Technologies).
The seeded plates are incubated overnight at 37° C.
The cells are then washed three times with assay buffer (HBSS 1×; 0.375 g/L NaHCO3; 20 mM Hepes; 1% FBS; pH 7.4) and allowed to rest in 50 μl of wash buffer for 30 minutes.
Stock solutions of test compounds are prepared to a concentration of 10 mM in DMSO. For the Cav3.2 assay, serial dilutions of the compounds are prepared in TEAC buffer (100 mM tetraethylammonium chloride; 20 mM Hepes; 2.5 mM CaCl2; 5 mM KCl; 1 mM MgCl2; 1% FBS; pH 7.2), for the Cav1.2 assay serial dilutions are prepared in assay buffer. […] The compounds are incubated with the cells for 3 minutes and Ca2+ entry is stimulated by adding either CaCl2 to a final concentration of 10 mM (Cav3.2 assay) or by adding KCl to a final concentration of 20 mM (Cav1.2 assay). The kinetics of fluorescence increase are recorded for every well and the area under the fluorescence trace for every compound concentration is used to generate inhibition curves using non-linear regression sigmoidal concentration-response curve analysis with in-house software.

T1 sequence (O95180 whole entry): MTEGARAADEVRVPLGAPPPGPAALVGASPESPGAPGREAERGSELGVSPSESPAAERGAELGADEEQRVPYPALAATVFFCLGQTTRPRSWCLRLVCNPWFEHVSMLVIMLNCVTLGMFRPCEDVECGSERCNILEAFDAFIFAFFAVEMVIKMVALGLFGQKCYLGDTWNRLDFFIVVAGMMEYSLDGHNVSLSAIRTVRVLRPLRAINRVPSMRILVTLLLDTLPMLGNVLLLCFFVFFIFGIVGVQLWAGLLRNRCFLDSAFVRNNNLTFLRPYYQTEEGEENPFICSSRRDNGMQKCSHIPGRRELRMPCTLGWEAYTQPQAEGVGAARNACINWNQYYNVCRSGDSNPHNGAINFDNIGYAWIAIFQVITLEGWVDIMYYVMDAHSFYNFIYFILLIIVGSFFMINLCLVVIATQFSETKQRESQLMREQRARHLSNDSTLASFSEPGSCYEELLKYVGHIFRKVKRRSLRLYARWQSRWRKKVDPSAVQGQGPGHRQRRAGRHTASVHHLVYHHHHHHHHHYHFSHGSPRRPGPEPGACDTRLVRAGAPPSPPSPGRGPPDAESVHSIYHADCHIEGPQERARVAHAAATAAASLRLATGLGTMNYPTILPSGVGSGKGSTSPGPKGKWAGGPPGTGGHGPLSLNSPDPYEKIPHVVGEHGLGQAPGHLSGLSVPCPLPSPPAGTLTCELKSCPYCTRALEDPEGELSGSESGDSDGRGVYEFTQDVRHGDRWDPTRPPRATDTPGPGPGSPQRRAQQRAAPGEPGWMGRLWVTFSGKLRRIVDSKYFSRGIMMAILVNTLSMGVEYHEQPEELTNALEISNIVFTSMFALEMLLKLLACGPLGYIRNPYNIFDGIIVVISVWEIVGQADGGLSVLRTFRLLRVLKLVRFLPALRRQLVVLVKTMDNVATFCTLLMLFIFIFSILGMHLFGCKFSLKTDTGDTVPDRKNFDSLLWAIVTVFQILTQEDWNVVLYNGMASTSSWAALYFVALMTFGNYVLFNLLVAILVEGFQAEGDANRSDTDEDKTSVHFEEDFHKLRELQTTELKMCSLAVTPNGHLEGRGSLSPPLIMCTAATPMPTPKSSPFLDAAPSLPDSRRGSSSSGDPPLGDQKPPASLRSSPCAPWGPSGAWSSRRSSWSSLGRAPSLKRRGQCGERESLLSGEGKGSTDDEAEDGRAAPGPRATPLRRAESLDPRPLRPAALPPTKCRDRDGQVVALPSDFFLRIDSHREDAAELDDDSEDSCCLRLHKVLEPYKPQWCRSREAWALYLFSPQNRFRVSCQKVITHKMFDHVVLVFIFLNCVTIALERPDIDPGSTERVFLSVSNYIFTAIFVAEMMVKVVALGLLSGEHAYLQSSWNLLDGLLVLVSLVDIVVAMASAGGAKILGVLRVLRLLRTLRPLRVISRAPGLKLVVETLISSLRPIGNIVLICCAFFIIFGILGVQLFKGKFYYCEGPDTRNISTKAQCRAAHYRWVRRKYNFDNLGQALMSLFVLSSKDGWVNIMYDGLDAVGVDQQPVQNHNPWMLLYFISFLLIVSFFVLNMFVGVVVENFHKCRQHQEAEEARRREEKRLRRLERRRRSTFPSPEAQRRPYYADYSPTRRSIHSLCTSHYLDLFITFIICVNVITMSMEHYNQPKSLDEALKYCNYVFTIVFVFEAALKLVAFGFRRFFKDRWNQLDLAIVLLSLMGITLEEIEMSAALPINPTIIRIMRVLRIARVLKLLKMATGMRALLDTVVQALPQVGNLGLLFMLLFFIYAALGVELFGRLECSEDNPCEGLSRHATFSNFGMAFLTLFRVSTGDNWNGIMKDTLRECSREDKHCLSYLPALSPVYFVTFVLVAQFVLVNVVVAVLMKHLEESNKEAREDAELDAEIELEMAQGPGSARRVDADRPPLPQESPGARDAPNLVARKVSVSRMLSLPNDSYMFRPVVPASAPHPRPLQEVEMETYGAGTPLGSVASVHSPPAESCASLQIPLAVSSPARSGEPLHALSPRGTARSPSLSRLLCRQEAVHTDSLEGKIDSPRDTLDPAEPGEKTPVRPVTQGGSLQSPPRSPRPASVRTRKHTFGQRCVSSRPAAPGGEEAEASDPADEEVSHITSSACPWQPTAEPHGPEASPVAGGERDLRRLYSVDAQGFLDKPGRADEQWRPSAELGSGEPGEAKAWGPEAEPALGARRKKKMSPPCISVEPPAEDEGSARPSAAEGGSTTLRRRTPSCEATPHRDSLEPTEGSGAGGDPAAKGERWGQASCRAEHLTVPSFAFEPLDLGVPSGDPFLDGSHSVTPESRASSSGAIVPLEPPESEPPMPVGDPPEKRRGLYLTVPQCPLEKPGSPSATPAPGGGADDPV

Point of comparison: `Cc1ccc(Cn2ccc(NC(=O)Cc3ccc4c(c3)c(C)cn4C)n2)nc1C#N` [Example 369, N-[1-(6-Cyano-5-methyl-pyridin-2-ylmethyl)-1H-pyrazol-3-yl]-2-(1,3-dimethyl-1H-indol-5-yl)-acetamide], IC50 0.064 µM. Against it:
- CC(C)c1ccc(CC(=O)Nc2ccn(Cc3ccc(C4CC4)cn3)n2)cc1 [Example 96, N-[1-(5-Cyclopropyl-pyridin-2-ylmethyl)-1H-pyrazol-3-yl]-2-(4-isopropyl-phenyl)-acetamide] — within 1.5-fold, 0.053 µM
- CCc1ccc(Cn2ccc(NC(=O)Cc3ccc(C(C)C)cc3)n2)nc1 [Example 100, N-[1-(5-Ethyl-pyridin-2-ylmethyl)-1H-pyrazol-3-yl]-2-(4-isopropyl-phenyl)-acetamide] — within 1.5-fold, 0.06 µM
- CC(C)c1ccc(CC(=O)Nc2ccn(Cc3ccc(N(C)C)cn3)n2)cc1 [Example 107, N-[1-(5-Dimethylamino-pyridin-2-ylmethyl)-1H-pyrazol-3-yl]-2-(4-isopropyl-phenyl)-acetamide] — 5.3-fold higher, 0.338 µM
- N#Cc1ccc(Cn2ccc(NC(=O)Cc3ccc(N4CCCC4)nc3)n2)cc1 [Example 176, N-[1-(4-Cyano-benzyl)-1H-pyrazol-3-yl]-2-(6-pyrrolidin-1-yl-pyridin-3-yl)-acetamide] — within 1.5-fold, 0.067 µM
- COc1ccc(Cn2ccc(NC(=O)Cc3ccc(N4CC(F)(F)C4)nc3)n2)cc1 [Example 146, 2-[6-(3,3-Difluoro-azetidin-1-yl)-pyridin-3-yl]-N-[1-(4-methoxy-benzyl)-1H-pyrazol-3-yl]-acetamide] — 2.1-fold higher, 0.136 µM
- CC(C)(C)c1ccc(CC(=O)Nc2ccn(Cc3ccc(C#N)c(F)c3)n2)cc1 [Example 264, 2-(4-tert-Butyl-phenyl)-N-[1-(4-cyano-3-fluoro-benzyl)-1H-pyrazol-3-yl]-acetamide] — 12-fold lower, 0.0054 µM
- N#Cc1cc(Cn2ccc(NC(=O)Cc3ccc(N4CCC(F)(F)C4)nc3)n2)ccc1F [Example 306, N-[1-(3-Cyano-4-fluoro-benzyl)-1H-pyrazol-3-yl]-2-[6-(3,3-difluoro-pyrrolidin-1-yl)-pyridin-3-yl]-acetamide] — 3.8-fold lower, 0.017 µM
- O=C(Cc1ccc(OCC2CC2)c(OC(F)(F)F)c1)Nc1ccn(Cc2ccc(F)c(F)c2)n1 [Example 398, 2-(4-Cyclopropylmethoxy-3-trifluoromethoxy-phenyl)-N-[1-(3,4-difluoro-benzyl)-1H-pyrazol-3-yl]-acetamide] — 1.6-fold lower, 0.039 µM
- CC(C)c1ccc(CC(=O)Nc2ccn(Cc3ccc(C#N)c(C(F)F)n3)n2)cc1 [Example 385, N-[1-(5-Cyano-6-difluoromethyl-pyridin-2-ylmethyl)-1H-pyrazol-3-yl]-2-(4-isopropyl-phenyl)-acetamide] — within 1.5-fold, 0.044 µM
- N#Cc1c(F)cc(Cn2ccc(NC(=O)Cc3ccc(N4CCC(F)(F)C4)nc3)n2)cc1F [Example 349, N-[1-(4-Cyano-3,5-difluoro-benzyl)-1H-pyrazol-3-yl]-2-[6-(3,3-difluoro-pyrrolidin-1-yl)-pyridin-3-yl]-acetamide] — 2.8-fold lower, 0.023 µM
- N#Cc1ccc(Cn2ccc(NC(=O)Cc3ccc(OC4COC4)cc3)n2)cc1F [Example 254, N-[1-(4-Cyano-3-fluoro-benzyl)-1H-pyrazol-3-yl]-2-[4-(oxetan-3-yloxy)-phenyl]-acetamide] — 1.6-fold higher, 0.1 µM
- CC(C)c1cn(C)c2ccc(CC(=O)Nc3ccn(Cc4ccc(F)c(C#N)c4)n3)cc12 [Example 328, N-[1-(3-Cyano-4-fluoro-benzyl)-1H-pyrazol-3-yl]-2-(3-isopropyl-1-methyl-1H-indol-5-yl)-acetamide] — 1.9-fold lower, 0.033 µM
- N#Cc1ccc(Cn2ccc(NC(=O)Cc3ccc(OCC4COC4)cc3)n2)cc1 [Example 286, N-[1-(4-Cyano-benzyl)-1H-pyrazol-3-yl]-2-[4-(oxetan-3-ylmethoxy)-phenyl]-acetamide] — 6.1-fold higher, 0.393 µM
- COc1ccc(Cn2ccc(NC(=O)Cc3ccc(N4CC(F)(F)C4)cc3)n2)cc1 [Example 51, 2-[4-(3,3-Difluoro-azetidin-1-yl)-phenyl]-N-[1-(4-methoxy-benzyl)-1H-pyrazol-3-yl]-acetamide] — 4-fold lower, 0.016 µM
- Cc1ccc(CC(=O)Nc2ccn(Cc3ccc(C#N)cn3)n2)cc1OCC(F)(F)F [Example 381, N-[1-(5-Cyano-pyridin-2-ylmethyl)-1H-pyrazol-3-yl]-2-[4-methyl-3-(2,2,2-trifluoro-ethoxy)-phenyl]-acetamide] — within 1.5-fold, 0.054 µM
- CC(C)c1ccc(CC(=O)Nc2ccn(Cc3ccc(OCC(F)(F)F)cn3)n2)cc1 [Example 93, 2-(4-Isopropyl-phenyl)-N-{1-[5-(2,2,2-trifluoro-ethoxy)-pyridin-2-ylmethyl]-1H-pyrazol-3-yl}-acetamide] — 1.6-fold lower, 0.039 µM
- CC1(COc2ccc(CC(=O)Nc3ccn(Cc4ccc(C#N)c(F)c4)n3)cc2)COC1 [Example 263, N-[1-(4-Cyano-3-fluoro-benzyl)-1H-pyrazol-3-yl]-2-[4-(3-methyl-oxetan-3-ylmethoxy)-phenyl]-acetamide] — 1.5-fold higher, 0.097 µM
- Cc1ccc(Cn2ccc(NC(=O)Cc3ccc(C(C)C)cc3)n2)cc1 [Example 9, 2-(4-Isopropyl-phenyl)-N-[1-(4-methyl-benzyl)-1H-pyrazol-3-yl]-acetamide] — 5.3-fold lower, 0.012 µM
- Cc1ccc(Cn2ccc(NC(=O)Cc3ccc(C(C)(C)C)cc3)n2)nc1C#N [Example 371, 2-(4-tert-Butyl-phenyl)-N-[1-(6-cyano-5-methyl-pyridin-2-ylmethyl)-1H-pyrazol-3-yl]-acetamide] — 4.9-fold lower, 0.013 µM
- CCN(CC)c1ccc(CC(=O)Nc2ccn(Cc3ccc(F)c(F)c3)n2)cn1 [Example 124, 2-(6-Diethylamino-pyridin-3-yl)-N-[1-(3,4-difluoro-benzyl)-1H-pyrazol-3-yl]-acetamide] — 6.5-fold lower, 0.0099 µM
- COc1nc(Cn2ccc(NC(=O)Cc3ccc(C(C)C)cc3)n2)ccc1C#N [Example 116, N-[1-(5-Cyano-6-methoxy-pyridin-2-ylmethyl)-1H-pyrazol-3-yl]-2-(4-isopropyl-phenyl)-acetamide] — within 1.5-fold, 0.075 µM
- N#Cc1cc(Cn2ccc(NC(=O)Cc3ccc(C4(F)COC4)cc3)n2)ccc1F [Example 270, N-[1-(3-Cyano-4-fluoro-benzyl)-1H-pyrazol-3-yl]-2-[4-(3-fluoro-oxetan-3-yl)-phenyl]-acetamide] — within 1.5-fold, 0.051 µM
- CCN(C)c1ccc(CC(=O)Nc2ccn(Cc3ccc(F)cc3)n2)cn1 [Example 48, 2-[6-(Ethyl-methyl-amino)-pyridin-3-yl]-N-[1-(4-fluoro-benzyl)-1H-pyrazol-3-yl]-acetamide] — 2.2-fold higher, 0.138 µM
- N#Cc1ccc(Cn2ccc(NC(=O)Cc3ccc(N4CCC(F)(F)C4)cc3)n2)nc1 [Example 91, N-[1-(5-Cyano-pyridin-2-ylmethyl)-1H-pyrazol-3-yl]-2-[4-(3,3-difluoro-pyrrolidin-1-yl)-phenyl]-acetamide] — 2.8-fold lower, 0.023 µM
- O=C(Cc1ccc(-c2cnccn2)cc1)Nc1ccn(Cc2ccc(F)cc2)n1 [Example 81, N-[1-(4-Fluoro-benzyl)-1H-pyrazol-3-yl]-2-(4-pyrazin-2-yl-phenyl)-acetamide] — 2-fold higher, 0.131 µM
- Cn1ccc2cc(CC(=O)Nc3ccn(Cc4ccc(F)c(F)c4)n3)ccc21 [Example 220, N-[1-(3,4-Difluoro-benzyl)-1H-pyrazol-3-yl]-2-(1-methyl-1H-indol-5-yl)-acetamide] — 21-fold lower, 0.0031 µM
- O=C(Cc1cnc(OCC(F)(F)F)c(F)c1)Nc1ccn(Cc2ccc(F)c(F)c2)n1 [Example 95, N-[1-(3,4-Difluoro-benzyl)-1H-pyrazol-3-yl]-2-[5-fluoro-6-(2,2,2-trifluoro-ethoxy)-pyridin-3-yl]-acetamide] — 1.5-fold higher, 0.099 µM
